Measured values published in ChEMBL document CHEMBL1201862, “PubChem BioAssay data set” (2004).
Active and inactive are the calls of the source.

What was measured:
[1] = biological target: Glyceraldehyde-3-phosphate dehydrogenase (Homo sapiens, UniProt P04406)
[2] = biological target: T1, Dual specificity protein phosphatase 6 (Rattus norvegicus, UniProt Q64346)
[3] = biological target: Heat shock 70 kDa protein 1A (Homo sapiens, UniProt P0DMV8); assay: inhibition of Hsp70 binding activity – biochemical, fluorescence polarization, SAR follow-up (AID 1072)
[4] = biological target: T1, Dual specificity protein phosphatase 6; assay type: functional
[5] = biological target: Dual specificity protein phosphatase 3 (Homo sapiens, UniProt P51452); assay: inhibition constants for human DUSP3 – biochemical, colorimetric, SAR follow-up (AID 2004)
[6] = biological target: T2, Tyrosine-protein phosphatase non-receptor type 7 (Homo sapiens, UniProt P35236); assay type: functional
T2 sequence (P35236 whole entry): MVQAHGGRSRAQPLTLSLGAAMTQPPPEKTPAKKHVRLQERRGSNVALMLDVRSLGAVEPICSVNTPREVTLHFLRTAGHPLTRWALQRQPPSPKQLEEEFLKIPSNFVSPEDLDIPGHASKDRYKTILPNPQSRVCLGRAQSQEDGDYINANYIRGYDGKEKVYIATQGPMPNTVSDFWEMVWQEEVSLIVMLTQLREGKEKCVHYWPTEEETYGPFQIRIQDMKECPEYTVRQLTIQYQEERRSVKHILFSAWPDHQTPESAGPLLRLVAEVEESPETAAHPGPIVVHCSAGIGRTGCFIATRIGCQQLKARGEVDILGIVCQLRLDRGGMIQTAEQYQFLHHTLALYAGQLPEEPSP

Phospholipase A2 = Phospholipase A2 (Homo sapiens, UniProt P04054); assay type: functional;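 further: confirmatory dose-response counterscreen on phospholipase A2, testing hits that came from an ultra-high-throughput screen for ATG4B inhibitors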
[7] = biological target: Heat shock cognate 71 kDa protein (Homo sapiens, UniProt P11142); assay: In Vitro Hsc70 Dose Response Fluorescence Polarization Assay. [Related pubchem assays: 1072 ]
Cysteine protease ATG4B = biological target: T3, Cysteine protease ATG4B (Homo sapiens, UniProt Q9Y4P1); assay type: functional;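 further: Fluorescence-based dose-response confirmation assay measuring inhibition of ATG4B activity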
T3 sequence (Q9Y4P1 whole entry): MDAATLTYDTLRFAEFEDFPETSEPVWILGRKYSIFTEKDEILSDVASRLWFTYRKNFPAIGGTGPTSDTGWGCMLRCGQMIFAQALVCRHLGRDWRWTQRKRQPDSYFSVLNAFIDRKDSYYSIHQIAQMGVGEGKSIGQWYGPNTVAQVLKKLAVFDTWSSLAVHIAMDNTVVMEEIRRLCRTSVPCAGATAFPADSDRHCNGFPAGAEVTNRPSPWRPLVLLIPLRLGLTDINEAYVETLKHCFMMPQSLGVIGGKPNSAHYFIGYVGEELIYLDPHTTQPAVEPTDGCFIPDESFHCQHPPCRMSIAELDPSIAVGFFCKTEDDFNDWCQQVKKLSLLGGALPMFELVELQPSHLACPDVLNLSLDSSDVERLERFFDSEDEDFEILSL

Bcl-2-like protein 10 = biological target: T4, Bcl-2-like protein 10 (Homo sapiens, UniProt Q9HD36); assay: Concentration-response of Bcl-B inhibitors by biochemical FP with TR3 (AID 1243); assay type: functional
T4 sequence (Q9HD36 whole entry): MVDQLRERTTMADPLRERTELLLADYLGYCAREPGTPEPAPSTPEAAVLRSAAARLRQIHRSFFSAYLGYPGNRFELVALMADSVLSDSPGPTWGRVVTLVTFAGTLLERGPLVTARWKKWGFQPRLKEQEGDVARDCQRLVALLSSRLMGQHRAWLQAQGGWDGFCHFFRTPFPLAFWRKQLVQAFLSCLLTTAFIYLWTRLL

[8] = biological target: T5, Endoribonuclease toxin MazF (Escherichia coli K-12, UniProt P0AE70); assay: activation of MazEF endoribonuclease cleavage – biochemical, fluorescence, single-stranded RNA substrate, uHTS hits, dose response (AID 588481); assay type: functional
T5 sequence (P0AE70 whole entry): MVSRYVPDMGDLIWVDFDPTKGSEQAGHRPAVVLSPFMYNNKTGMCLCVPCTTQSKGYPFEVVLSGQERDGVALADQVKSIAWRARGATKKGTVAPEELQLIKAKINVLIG

Keap1/Nrf2 = Keap1/Nrf2 (Homo sapiens, UniProt Q14145); assay: disruptors of Keap1 binding to Nrf2 peptide – biochemical, fluorescence polarization, cherry-picked samples, dose response (AID 588683)
[9] = biological target: T5, Endoribonuclease toxin MazF; assay: substrate-only fluorescence increase artefacts – biochemical, single-stranded RNase substrate, counter-screen for MazEF activator project, dose response (AID 588502); assay type: functional
[10] = biological target: T6, Eukaryotic translation initiation factor 4H (Homo sapiens, UniProt Q15056); assay: inhibitors of translation initiation factor eIF4H – SAR follow-up (AID 435011); assay type: functional
[11] = biological target: T7, Small ubiquitin-related modifier 1 (Homo sapiens, UniProt P63165); assay: SUMO1 protein-protein binding blockers, potency – biochemical, FRET, dose response (AID 624383); assay type: functional; settings: read-out: IC50_Mean
[12] = biological target: T8, Polyadenylate-binding protein 1 (Homo sapiens, UniProt P11940); assay: PABP inhibition in translation initiation, SAR follow-up (AID 435018); assay type: functional
[13] = biological target: T9, Apoptotic protease-activating factor 1 (Homo sapiens, UniProt O14727); assay: activation of Apaf-1 mediated apoptosis – fluorescent, uHTS hits, dose response (AID 588554); assay type: functional
T9 sequence (O14727 whole entry): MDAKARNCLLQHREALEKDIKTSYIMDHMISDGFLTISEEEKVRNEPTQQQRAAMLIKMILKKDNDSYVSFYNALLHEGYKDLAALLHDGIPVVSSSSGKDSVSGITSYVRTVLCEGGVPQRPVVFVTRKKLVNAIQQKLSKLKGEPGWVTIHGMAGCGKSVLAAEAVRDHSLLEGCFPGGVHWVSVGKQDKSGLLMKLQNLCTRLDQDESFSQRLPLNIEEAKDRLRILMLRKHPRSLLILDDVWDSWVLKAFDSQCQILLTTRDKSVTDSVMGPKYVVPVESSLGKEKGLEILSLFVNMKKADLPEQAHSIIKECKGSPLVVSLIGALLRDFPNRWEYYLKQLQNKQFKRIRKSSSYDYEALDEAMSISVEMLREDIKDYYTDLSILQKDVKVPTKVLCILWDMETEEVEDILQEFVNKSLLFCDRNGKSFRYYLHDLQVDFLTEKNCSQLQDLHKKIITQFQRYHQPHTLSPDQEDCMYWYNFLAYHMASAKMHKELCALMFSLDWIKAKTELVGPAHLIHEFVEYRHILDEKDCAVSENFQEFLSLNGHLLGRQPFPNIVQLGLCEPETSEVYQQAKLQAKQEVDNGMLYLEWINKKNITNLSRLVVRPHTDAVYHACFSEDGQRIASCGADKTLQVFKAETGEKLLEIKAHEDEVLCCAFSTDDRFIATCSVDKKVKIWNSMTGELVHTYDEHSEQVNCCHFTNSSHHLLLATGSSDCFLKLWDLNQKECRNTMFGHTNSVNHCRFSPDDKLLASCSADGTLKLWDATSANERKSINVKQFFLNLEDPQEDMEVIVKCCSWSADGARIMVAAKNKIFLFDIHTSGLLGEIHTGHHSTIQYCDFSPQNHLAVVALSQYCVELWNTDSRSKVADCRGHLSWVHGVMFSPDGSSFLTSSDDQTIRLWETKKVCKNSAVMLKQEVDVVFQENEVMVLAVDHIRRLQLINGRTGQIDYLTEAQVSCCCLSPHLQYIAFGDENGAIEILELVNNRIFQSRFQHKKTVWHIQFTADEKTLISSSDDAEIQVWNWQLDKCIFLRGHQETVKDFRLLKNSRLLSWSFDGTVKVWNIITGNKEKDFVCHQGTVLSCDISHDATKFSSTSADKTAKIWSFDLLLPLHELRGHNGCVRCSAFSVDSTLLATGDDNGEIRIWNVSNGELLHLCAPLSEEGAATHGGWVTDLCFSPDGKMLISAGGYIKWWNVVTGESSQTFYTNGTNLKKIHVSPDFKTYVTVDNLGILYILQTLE

[14] = biological target: T8, Polyadenylate-binding protein 1; assay: blockers of PABP interaction with poly(A) – biochemical, fluorescence polarization, […] (AID 2014)
[15] = biological target: T7, Small ubiquitin-related modifier 1; assay: SUMO1 protein interaction blockers, potency – biochemical, fluorescence polarization, uHTS hits, dose response (AID 624382); assay type: functional; settings: read-out: IC50_Mean
[16] = biological target: T6, Eukaryotic translation initiation factor 4H; assay: eIF4H binding inhibition – biochemical, uHTS, fluorescence polarization, translation initiation inhibitor project, primary screen (AID 2012)
[17] = biological target: UDP-galactopyranose mutase (Mycobacterium tuberculosis, UniProt P9WIQ1); assay: Inhibitors of Mycobacterium tuberculosis UDP-galactopyranose mutase (UGM) enzyme Measured in Biochemical System Using Plate Reader - 2105-02_Inhibitor_Dose_CherryPick_Activity. [Related pubchem assays (depositor defined):AID504439]
Candida albicans = assay: antifungal activity against resistant Candida strain – CaCi-8, fluconazole, Alamar Blue, dry powder, dose response (AID 488807); assay type: functional, organism-based
Estrogen receptor = biological target: T10, Estrogen receptor (Homo sapiens, UniProt P03372);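 further: potency for inhibiting coactivator peptide recruitment to the receptor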
T10 sequence (P03372 whole entry): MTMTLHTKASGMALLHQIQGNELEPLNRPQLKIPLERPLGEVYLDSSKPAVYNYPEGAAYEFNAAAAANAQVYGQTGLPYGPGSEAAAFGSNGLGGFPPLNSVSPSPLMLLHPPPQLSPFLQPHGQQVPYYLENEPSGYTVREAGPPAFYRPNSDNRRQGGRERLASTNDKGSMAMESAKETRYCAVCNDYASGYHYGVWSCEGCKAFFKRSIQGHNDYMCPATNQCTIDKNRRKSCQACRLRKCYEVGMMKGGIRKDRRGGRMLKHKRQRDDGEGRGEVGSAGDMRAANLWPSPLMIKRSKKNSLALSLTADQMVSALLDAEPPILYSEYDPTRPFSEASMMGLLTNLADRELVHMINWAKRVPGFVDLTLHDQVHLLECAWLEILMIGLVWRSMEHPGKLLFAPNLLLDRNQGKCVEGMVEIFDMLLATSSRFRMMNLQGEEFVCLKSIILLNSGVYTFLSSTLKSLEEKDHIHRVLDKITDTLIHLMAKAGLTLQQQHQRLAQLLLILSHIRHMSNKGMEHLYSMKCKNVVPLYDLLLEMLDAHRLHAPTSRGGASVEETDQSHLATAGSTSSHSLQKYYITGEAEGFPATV

[18] = alpha-synuclein stem-loop luciferase translation blockers – H4 neuroglioma cells, luminescence, confirmation (AID 1988); assay type: functional, cell-based
[19] = Luminescence Cell-Based Dose Response HTS to Identify Inhibitors of 5'UTR Stem-Loop Driven Prion Protein mRNA Translation in H4 Neuroglioblastoma Cells. [Related pubchem assays: 1827 (Project Summary), 1813 (Primary HTS)]; assay type: functional
[20] = luciferase reporter signal suppression in cells – H4 neuroglioma cells, luminescence, dose response (AID 1990); assay type: functional, cell-based
[21] = viability loss of HMLE_sh_eGFP cells – cell-based, luminescence, counter-screen for HMLE_sh_ECad selective toxicity project, dose response (AID 463074); assay type: functional, Homo sapiens;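 further: HMLE human mammary epithelial cells expressing control shRNA against eGFP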
[22] = A Cell Based Secondary Assay To Explore Cytotoxicity of Compounds that Sensitize Mycobacterium Tuberculosis to Beta-Lactam Antibiotics.; assay type: functional
[23] = Luminescence Cell-Based Dose Retest to Confirm Inhibitors of Cancer Stem Cells. [Related pubchem assays (depositor defined):AID2717, AID2721]; assay type: functional; settings: Homo sapiens

T7 sequence (P63165 whole entry): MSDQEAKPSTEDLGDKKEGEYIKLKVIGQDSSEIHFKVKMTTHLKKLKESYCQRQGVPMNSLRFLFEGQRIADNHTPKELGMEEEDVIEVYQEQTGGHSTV
T8 sequence (P11940 whole entry): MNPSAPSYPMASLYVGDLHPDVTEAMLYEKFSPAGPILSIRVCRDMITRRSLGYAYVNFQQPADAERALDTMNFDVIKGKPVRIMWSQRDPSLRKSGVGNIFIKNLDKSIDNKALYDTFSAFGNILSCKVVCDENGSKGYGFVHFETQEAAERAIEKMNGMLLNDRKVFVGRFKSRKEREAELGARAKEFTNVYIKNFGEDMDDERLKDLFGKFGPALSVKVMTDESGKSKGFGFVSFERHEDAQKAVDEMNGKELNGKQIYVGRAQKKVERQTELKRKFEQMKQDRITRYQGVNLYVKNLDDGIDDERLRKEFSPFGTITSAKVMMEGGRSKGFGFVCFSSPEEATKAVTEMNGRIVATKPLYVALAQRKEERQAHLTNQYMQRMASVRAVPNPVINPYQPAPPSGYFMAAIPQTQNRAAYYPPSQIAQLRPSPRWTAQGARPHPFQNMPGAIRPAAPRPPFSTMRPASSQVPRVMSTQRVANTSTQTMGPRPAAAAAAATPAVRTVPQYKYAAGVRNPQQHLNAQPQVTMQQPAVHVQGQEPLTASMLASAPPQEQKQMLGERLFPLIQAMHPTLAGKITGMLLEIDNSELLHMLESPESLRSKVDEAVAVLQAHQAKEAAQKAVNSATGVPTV
T1 sequence (Q64346 whole entry): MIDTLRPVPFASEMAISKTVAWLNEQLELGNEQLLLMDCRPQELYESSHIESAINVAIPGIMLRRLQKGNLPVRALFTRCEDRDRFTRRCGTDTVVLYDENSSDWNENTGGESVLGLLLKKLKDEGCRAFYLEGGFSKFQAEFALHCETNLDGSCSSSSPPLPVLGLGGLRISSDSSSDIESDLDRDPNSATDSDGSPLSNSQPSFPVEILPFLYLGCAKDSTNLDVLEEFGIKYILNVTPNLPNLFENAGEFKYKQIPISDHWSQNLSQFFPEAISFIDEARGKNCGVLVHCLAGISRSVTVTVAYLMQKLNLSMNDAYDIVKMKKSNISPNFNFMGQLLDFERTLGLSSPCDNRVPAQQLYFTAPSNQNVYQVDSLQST
Sequence of Heat shock 70 kDa protein 1A (P0DMV8 whole entry): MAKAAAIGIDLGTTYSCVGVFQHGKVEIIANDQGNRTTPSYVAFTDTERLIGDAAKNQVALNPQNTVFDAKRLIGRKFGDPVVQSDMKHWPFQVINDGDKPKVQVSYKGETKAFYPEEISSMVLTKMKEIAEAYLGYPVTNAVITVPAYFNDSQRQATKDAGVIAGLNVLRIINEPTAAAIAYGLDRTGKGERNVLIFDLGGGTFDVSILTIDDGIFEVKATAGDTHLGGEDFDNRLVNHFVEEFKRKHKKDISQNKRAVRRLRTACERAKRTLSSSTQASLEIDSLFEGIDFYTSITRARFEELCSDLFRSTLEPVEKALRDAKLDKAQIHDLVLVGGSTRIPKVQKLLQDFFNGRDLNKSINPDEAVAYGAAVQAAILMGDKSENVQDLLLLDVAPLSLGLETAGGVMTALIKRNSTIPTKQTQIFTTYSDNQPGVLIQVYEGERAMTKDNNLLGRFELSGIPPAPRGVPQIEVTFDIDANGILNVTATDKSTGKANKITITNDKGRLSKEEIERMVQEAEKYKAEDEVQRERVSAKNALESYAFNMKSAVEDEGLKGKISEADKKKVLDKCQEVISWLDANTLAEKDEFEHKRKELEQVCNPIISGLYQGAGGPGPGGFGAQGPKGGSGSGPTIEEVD
Sequence of Keap1/Nrf2 (Q16236 whole entry): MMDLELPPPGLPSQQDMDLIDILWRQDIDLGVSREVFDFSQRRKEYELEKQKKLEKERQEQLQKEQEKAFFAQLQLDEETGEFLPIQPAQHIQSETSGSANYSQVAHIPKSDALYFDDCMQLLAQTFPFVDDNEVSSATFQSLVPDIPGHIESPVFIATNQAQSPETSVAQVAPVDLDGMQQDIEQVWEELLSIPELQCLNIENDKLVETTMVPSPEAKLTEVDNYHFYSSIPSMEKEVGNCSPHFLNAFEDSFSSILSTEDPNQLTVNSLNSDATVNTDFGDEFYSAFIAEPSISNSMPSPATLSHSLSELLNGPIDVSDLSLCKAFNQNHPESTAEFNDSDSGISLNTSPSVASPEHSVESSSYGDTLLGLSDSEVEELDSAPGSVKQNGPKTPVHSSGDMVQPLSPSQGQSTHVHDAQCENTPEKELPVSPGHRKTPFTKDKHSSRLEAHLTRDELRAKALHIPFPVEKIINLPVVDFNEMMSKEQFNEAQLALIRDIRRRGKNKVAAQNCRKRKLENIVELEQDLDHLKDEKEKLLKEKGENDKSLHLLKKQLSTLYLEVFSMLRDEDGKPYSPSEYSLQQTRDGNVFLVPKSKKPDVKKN
Sequence of Keap1/Nrf2 (Q14145 whole entry): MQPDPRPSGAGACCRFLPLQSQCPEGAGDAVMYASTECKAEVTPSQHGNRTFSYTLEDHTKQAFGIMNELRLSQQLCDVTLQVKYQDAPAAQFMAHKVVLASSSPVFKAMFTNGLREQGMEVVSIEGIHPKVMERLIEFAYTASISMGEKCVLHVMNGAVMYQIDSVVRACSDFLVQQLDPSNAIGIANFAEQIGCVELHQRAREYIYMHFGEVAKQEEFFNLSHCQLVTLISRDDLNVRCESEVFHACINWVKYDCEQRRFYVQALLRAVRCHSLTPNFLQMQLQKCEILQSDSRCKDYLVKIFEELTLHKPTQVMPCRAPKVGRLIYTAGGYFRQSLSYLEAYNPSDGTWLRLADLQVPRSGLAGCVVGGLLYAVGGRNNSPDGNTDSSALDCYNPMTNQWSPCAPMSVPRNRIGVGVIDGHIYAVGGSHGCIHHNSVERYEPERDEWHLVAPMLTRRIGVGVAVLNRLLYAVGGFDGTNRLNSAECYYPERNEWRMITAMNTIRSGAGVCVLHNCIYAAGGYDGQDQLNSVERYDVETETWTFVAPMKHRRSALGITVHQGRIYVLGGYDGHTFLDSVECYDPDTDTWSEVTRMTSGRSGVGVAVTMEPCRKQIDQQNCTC
Sequence of Phospholipase A2 (P04054 whole entry): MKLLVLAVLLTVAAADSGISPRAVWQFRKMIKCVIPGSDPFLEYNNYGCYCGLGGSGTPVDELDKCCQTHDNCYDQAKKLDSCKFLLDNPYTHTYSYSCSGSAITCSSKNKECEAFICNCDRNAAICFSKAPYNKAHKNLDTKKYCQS
Sequence of Glyceraldehyde-3-phosphate dehydrogenase (P04406 whole entry): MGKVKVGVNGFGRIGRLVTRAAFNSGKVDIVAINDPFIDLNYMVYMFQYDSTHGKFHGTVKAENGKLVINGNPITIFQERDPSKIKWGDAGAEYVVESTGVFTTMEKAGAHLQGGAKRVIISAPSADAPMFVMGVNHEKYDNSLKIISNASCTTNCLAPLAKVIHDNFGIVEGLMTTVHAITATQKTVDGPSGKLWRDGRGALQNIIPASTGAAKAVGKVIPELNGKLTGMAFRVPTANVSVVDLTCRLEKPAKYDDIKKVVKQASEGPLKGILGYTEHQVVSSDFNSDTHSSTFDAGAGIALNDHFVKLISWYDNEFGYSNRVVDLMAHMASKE
Sequence of UDP-galactopyranose mutase (P9WIQ1 whole entry): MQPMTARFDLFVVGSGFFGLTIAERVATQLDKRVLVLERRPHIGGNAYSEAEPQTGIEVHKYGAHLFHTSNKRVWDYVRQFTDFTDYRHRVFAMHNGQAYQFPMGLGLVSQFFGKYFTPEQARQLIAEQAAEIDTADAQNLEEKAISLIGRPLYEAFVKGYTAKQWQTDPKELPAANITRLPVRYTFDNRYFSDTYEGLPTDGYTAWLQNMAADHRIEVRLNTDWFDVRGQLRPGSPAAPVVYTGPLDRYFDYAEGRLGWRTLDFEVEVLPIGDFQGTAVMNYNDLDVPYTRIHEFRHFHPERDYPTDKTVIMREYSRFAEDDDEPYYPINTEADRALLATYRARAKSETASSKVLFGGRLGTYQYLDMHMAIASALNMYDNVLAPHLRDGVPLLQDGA
Sequence of Heat shock cognate 71 kDa protein (P11142 whole entry): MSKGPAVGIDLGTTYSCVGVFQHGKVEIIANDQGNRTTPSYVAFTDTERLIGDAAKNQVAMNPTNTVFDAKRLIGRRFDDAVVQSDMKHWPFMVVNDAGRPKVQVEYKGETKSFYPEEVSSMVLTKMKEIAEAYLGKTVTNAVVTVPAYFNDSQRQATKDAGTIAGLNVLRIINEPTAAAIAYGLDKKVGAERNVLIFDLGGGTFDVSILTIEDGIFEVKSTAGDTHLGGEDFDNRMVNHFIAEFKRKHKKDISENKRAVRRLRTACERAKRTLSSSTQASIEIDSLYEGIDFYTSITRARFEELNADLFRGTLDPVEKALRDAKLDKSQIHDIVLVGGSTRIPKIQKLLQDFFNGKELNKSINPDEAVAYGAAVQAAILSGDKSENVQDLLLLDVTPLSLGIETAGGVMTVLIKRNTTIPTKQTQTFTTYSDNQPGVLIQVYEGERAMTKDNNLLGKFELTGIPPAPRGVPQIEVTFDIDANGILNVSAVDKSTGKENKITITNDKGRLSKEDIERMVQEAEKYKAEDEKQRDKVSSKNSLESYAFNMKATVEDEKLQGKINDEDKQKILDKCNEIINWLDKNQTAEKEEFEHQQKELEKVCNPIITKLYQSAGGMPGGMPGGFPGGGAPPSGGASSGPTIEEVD

O=C(O)C1Nc2c(Cl)cc(Cl)cc2C2C=CCC12 (centres undefined)
IC50 [1]: > 100 µM (not active) | IC50 [2]: 63.5 µM (active) | IC50 [3]: > 100 µM (not active) | IC50 [4]: 53 µM (active) | Ki [5]: 65.6 µM (inactive) | IC50 [6]: 12.9 µM (active) | IC50 (Phospholipase A2): 9.08 µM (active) | IC50 [7]: > 100 µM (not active) | IC50 (Cysteine protease ATG4B): 2.58 µM (active) | EC50 (Bcl-2-like protein 10): 1.03 µM (active)

O=C(C1=C(O)C(=O)N(c2nccs2)C1c1ccccc1)c1cc2ccccc2o1 (centres undefined)
EC50 [8]: > 99 µM (inactive) | AC50 (Keap1/Nrf2): 1.15 µM (active) | EC50 [9]: > 99 µM (inactive)

COc1cc([N+](=O)[O-])ccc1NC(=O)COC(=O)c1ccc(NC(N)=O)cc1
IC50 [10]: 4.62 µM (active) | IC50 [11]: 10.2 µM (active) | IC50 [12]: 76.2 µM (active) | EC50 [13]: 10.4 µM (active) | IC50 [14]: > 100 µM (inactive) | IC50 [15]: > 66.6 µM (inactive) | IC50 [16]: 14.6 µM (active)

O=C(NCCc1ccc(F)cc1)c1cccc2c1C(=O)c1ccc(N3CCC(Cc4ccccc4)CC3)cc1S2(=O)=O
AC50 [17]: 47.8 µM (active)

Oc1c2nc3ccccc3c-2nc2n1CCS2
AC50 (Candida albicans): 17.1 µM (active)

Cc1nc2ccccc2c(=O)n1/N=C/c1c(O)ccc2oc3c(c12)CCCC3
IC50 (Estrogen receptor): 29.2 µM (active) | EC50 [18]: 9.98 µM (active) | EC50 [19]: 11.7 µM (active) | EC50 [20]: 11.1 µM (active) | AC50 [21]: 32.8 µM (active) | CC50 [22]: 4.26 µM (active) | AC50 [23]: 30 µM (active)
